Test [1] addresses T1, human Nav1.6 (Homo sapiens, UniProt Q9UQD0).
T1 construct: expressed in transfected cells; host or cells: HEK293 stably expressing human Nav1.6
The test is described as follows: Whole-cell patch-clamp, HEK293 cells stably expressing human Nav1.6. The test is classed as cell-based. The method, then: Whole-cell patch clamp electrophysiology
HEK293-Nav1.7 cells, HEK293 stably expressing human Nav1.6 (HEK-Nav1.6), HEK293 stably expressing human Nav1.5 (HEK-Nav1.5), human hIPSC-derived sensory neurons (RealDRGTM from Anatomic Incorporated 1020F1-1M) and donor-derived DRG neurons were plated at low density on glass coverslips and processed for whole-cell patch clamp electrophysiology in voltage-clamp and/or current clamp mode. Whole-cell patch electrophysiological experiments were conducted following previously published studies (26). Current densities were obtained by dividing INa amplitude by membrane capacitance. Current –voltage relationships were generated by plotting current density as a function of the […]. Conductance (G Na) was calculated by the […]
where INa is the current amplitude at voltage Vm, and Erev is the Na+ reversal potential.
Activation curves were derived by plotting normalized GNa as a function of test potential and fitted using […]
Where GNa,Max is the maximum conductance, Va is the membrane potential of half-maximal activation, Em is the membrane voltage and k is the slope factor. For steady -state inactivation, normalized current amplitude (INa/INa,Max) at the test potential was plotted as a function of prepulse potential (Vm) and fitted using the […]
Where Vh is the potential of half-maximal inactivation, E m is the membrane voltage, and k is the slope factor.
Transient INa inactivation decay was estimated with the standard exponential equation. Inactivation time constant (tau, τ) was fitted with the following equation: […]
where I(t) is the amplitude of the current at time t and Iss is the steady-state current during a single voltage-step.
The goodness of fitting was determined by correlation coefficient (R), and the cutoff of R was set at 0.85. To observe effects on long-term inactivation (LTI), a four-step protocol was employed during which cells were subjected to four 0 mV, 20 ms depolarization pulses separated by −90 mV, 40 ms recovery intervals. To control for various cell sizes, the current densities were calculated by dividing INa peak current amplitude/membrane capacitance (Cm). To represent the fraction of channels entering into LTI, the peak INa observed during depolarization cycles 2-4 was normalized to the peak INa observed during depolarization cycle 1 (INa/INa,Cycle 1) and plotted as a function of the depolarization cycle.
The cumulative (frequency-dependent) use-dependency was determined by applying 20 pulses with a depolarization to −10 mV (50 ms duration) and 50 ms recovery intervals with a train of 20 pulses at 10 Hz from a holding potential at -70 mV. The current pulses were normalized to the first reco rded pulse and the currents at the 2nd to 20th pulses were compared. The same train was used to record use-dependency at various frequencies […]
The rate of recovery from inactivation was recorded at -80 mV with a standard repriming voltage protocol.
The cells were prepulsed to -20 mV for 20 ms to inactivate all currents, then driven back to the recovery potential (Vrec) for increasing recovery durations before the test pulse to 0 mV. The maximum pulse rate was 0.5 Hz. The […]
follows previous publications (16). The time constants were estimated from single exponential decay to time courses measured at recovery potentials ranging from -140 to -60 mV with the protocol as mentioned above.
Electrophysiological Recordings
HEK293 cells: Electrophysiological recordings in HEK293 stably expressing Nav1.7 (HEK-Nav1.7), Nav1.5 (HEK-Nav1.5) or Nav1.6 (HEK-Nav1.6) were performed at room temperature using a MultiClamp 700B or an Axopatch 200B amplifier (Molecular Devices) after incubating coverslips for 60 minutes either with 0.1% DMSO or 50 μM PW164 or ZL192 in the extracellular solution. The composition of recording solutions consisted of the […]
following salts: extracellular (mM): 140 NaCl, 3 KCl, 1 MgCl2, 1 CaCl2, 10 HEPES, 10 glucose, pH 7.3; […]
intracellular (mM): 130 CH3O3 SCs, 1 EGTA, 10 NaCl, 10 HEPES, pH 7.3. […]
(In general: In patch-clamp work, channel activity is measured electrically.)

Test [2] concerns C57BL/6 mice. Briefly: Capsaicin-induced thermal hypersensitivity (Hargreaves). The test is classed as in vivo, mouse. The source says:
FGF13 is a neuronal gene ubiquitously transcribed in DRG neuronal subtypes ([43]–[46]). To investigate neuronal subtype enrichment of the FGF13 transcript, we examined a gene panel including FGF13, SCN9A, and several marker genes in mouse single-cell transcriptomic data (Supplemental Figure 10) ([43]–[46]). […] Critically, putative silent nociceptors marked by somatostatin (SST), and the nicotinic cholinergic receptor α-3 subunit (CHRNA3) contribute to development of inflammatory mechanical hyperalgesia ([47]). […] We next determined if PW164 modulation of the FGF13/Nav1.7 complex could suppress nociceptive behaviors in WT mice. We tested whether intraplantar (i.pl.) injection (5 μL) of PW164 altered hind paw withdrawal in response to low or high intensity von Frey filament (LVF or HVF, respectively) mechanical stimulation (Figure 3A). […] Next, we evaluated PW164’s effect on mechanical and thermal hindpaw sensitivity in capsaicin-induced nociceptive hypersensitivity models. […] Next, we performed in vivo target validation in WT mice that received an intrathecal (i.t.) injection in L5 of AAV2-shFGF13 (6 μL, viral titers 1 × 10^12 vector genomes (vg)/mL); a control group received an equal number of AAV2-shCTRL particles (Figure 3C).
Experiments were performed on 6- to 12-week-old male C57BL/6 mice (The Jackson Laboratory, Bar Harbor, ME) housed in the AAALAC-accredited facility at the University of Texas Medical Branch. Mice were group-housed with up to 5 mice per cage on a 12-to-12-hour light–dark cycle and had access to water and food ad libitum. All protocols were approved by the Institutional Animal Care and Use Committee (IACUC) at the University of Texas Medical Branch and in accordance with the National Institutes of Health (NIH) guidelines.
PW164 and ZL192 were dissolved in DMSO and saline in a ratio of 1:10. 0.1% capsaicin (10% ethanol, 10% Tween-20 in saline; Sigma-Aldrich). All the compounds were injected at the center of the hind paw. The control group received a DMSO-saline mixture. […]
AAV2 viral particles packaged by the University of North Carolina Gene Therapy Core Facility (viral titer ranging […]
Before intrathecal injections in the lumbar region, mice were maintained in an anesthetizing box with 2% isoflurane to induce unconsciousness. Six microliters of viral vector were gently injected into the CSF through a 30-gauge needle with a Hamilton syringe in the lumbar area between vertebrae L4 and L5 by gently gripping the iliac crest of the mouse and inserting the needle with an angle of 45°. The correct procedure was confirmed by the mouse’s tail reflexiv e flick. […]

[3] abbreviates: HEK293 Nav1.6, FGF13-1a-GFP + PW164.

“Also recorded” adds a separate entry of the source. Residues, ends and D or L forms follow the SMILES beside them. *: point of attachment. Cbz = O=C(OCc1ccccc1)*; OtBu = CC(C)(C)O*

T1 sequence (Q9UQD0 whole entry): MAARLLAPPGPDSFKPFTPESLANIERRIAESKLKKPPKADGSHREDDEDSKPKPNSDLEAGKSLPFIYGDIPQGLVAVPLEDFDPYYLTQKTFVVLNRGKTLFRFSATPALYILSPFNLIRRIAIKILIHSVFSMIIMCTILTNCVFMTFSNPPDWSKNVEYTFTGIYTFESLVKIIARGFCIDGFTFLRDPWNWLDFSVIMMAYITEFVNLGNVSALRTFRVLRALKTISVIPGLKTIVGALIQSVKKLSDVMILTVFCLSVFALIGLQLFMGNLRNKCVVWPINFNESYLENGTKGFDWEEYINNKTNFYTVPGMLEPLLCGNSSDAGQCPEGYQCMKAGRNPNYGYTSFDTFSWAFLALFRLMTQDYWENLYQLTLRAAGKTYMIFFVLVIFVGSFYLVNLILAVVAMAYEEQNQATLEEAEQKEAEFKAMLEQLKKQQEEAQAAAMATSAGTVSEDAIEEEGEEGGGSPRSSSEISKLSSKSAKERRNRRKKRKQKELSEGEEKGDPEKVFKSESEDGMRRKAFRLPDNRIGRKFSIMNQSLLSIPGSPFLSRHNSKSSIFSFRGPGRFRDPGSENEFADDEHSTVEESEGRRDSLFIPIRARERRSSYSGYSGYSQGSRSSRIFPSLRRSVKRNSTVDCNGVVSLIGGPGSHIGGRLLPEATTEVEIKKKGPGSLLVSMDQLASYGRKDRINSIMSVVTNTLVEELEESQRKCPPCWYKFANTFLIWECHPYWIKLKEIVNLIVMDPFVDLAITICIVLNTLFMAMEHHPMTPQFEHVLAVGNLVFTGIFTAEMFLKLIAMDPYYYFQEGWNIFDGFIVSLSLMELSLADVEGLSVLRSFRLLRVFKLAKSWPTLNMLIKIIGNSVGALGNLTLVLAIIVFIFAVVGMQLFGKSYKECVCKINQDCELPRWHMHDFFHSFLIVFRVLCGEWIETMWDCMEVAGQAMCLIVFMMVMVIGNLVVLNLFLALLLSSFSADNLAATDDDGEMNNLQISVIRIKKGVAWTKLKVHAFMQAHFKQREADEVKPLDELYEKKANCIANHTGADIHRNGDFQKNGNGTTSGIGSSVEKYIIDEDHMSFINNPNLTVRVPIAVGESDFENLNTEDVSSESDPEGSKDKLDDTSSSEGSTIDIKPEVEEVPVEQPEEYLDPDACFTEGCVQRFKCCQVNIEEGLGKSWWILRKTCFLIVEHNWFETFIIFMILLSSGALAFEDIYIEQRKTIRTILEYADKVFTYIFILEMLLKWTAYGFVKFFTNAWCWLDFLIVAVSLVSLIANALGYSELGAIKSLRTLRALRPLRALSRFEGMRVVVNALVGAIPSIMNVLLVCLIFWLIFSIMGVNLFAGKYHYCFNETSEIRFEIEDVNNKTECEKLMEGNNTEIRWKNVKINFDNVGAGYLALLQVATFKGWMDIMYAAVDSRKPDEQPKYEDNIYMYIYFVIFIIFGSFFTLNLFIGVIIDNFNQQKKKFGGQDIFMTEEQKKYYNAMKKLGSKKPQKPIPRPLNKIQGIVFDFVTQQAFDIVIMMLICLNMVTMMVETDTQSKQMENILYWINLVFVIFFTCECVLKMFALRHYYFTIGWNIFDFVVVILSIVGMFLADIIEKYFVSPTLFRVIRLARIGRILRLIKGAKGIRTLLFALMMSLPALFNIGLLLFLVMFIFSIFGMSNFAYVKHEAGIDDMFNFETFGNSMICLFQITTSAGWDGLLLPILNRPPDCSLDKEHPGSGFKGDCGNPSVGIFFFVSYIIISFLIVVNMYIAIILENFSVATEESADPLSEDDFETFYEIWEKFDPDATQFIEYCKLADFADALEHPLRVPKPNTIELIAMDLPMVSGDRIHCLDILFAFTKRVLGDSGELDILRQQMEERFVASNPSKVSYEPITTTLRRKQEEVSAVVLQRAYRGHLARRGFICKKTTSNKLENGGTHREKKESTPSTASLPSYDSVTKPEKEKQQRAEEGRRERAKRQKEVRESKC

As to `COC(=O)[C@@H](NC(=O)[C@H](CCC(=O)OC(C)(C)C)NC(=O)[C@H](CC(C)C)NC(=O)[C@@H]1CCCN1C(=O)OCc1ccccc1)C(C)C` [PW164] (Cbz-PLE(OtBu)V-OMe), in test [1] (setting [3]), the Activation is listed as −29.2 ± 1.2 mV; the “Long-term inactivation, 2nd Pulse” value is listed as −67.4 ± 4.1 % maximal Na+ current; the “Long-term inactivation, 3rd Pulse” value is −59.7 ± 4.1 % maximal Na+ current; the “Long-term inactivation, 4th Pulse” value is recorded as −54.2 ± 4.9 % maximal Na+ current. Moreover, in test [1] (setting [3]), the Peak Density is −102.7 ± 8.8 pA/pF, the Steady state inactivation is recorded as −50.8 ± 2.1 mV and the “Tau (τ)” value is 1.46 ± 0.04 ms. For the same compound, the “activity on Nav1.6-mediated currents” value in test [1] (HEK293 stably expressing Nav1.6 alone or coexpressing FGF13) was “does not modulate; also recorded: inactive”. Also, in test [2] (PW164 5 μL, 0.7mg/mL hind paw), the “thermal sensitivity in AAV2-shFGF13 mice after capsaicin” value is “did not further modify”. Further, the capsaicin-induced thermal sensitivity result in test [2] (PW164 at the capsaicin injection site, 30 minutes post-capsaicin) is reported as “inhibited”.

The record behind these values is PMC12259270, “Sensory neuron–expressed FGF13 controls nociceptive signaling in diabetic neuropathy models” (The Journal of Clinical Investigation, 2025).
